Results on 22 compounds are retold here after ChEMBL document CHEMBL1142261 (Bioorg Med Chem, 2008).

Experiment [1] concerns the target T1, Nociceptin receptor (Homo sapiens, UniProt P41146). The experiment in a line: Displacement of [3H]nociceptin from human ORL1-Galpha fusion receptor in COS7 cells. The class given is cell-based, COS-7.
The target in experiment [2] is Nociceptin receptor (Mus musculus) (UniProt P35377). The experiment in a line: Antagonist activity at ORL1[…] receptor in ICR mouse vas deferens assessed as inhibition of electrically-stimulated muscle contraction. The class given is functional, tissue-based.
The target of experiment [3] is T1, Nociceptin receptor. The experiment in a line: Activity at human ORL1-Galpha fusion receptor in COS7 cells assessed as stimulation of [35S]GTP-gamma-S binding. The experiment is classed as functional, cell-based, COS-7. A general note: GTPγS is a poorly hydrolysed GTP analogue; its binding reports G protein activation.
The target in experiment [4] is Nociceptin receptor (Mus musculus) (UniProt P35377). The experiment in a line: Antagonist activity at ORL1[…] receptor in ICR mouse vas deferens assessed as inhibition of electrically-stimulated muscle contraction at 10 uM. The class given is functional, tissue-based. More on the design: scale not given: the % may be the effect or the level left.
Experiment [5] has the same target. The experiment in a line: Agonist activity at ORL1[…] receptor in ICR mouse vas deferens assessed as inhibition of electrically-stimulated muscle contraction at 10 uM. The experiment is classed as functional, tissue-based. Also noted: scale not given: the % may be the effect or the level left.

Structures are written as SMILES. Calls of active or inactive are those of the source. No cut-off for these calls is given here. Peptide text beside a SMILES is read from it. * marks the point of attachment. Isovaleryl = CC(C)CC(=O)*; Propionyl = CCC(=O)*; Bz = O=C(c1ccccc1)*

T1 sequence (P41146 whole entry, the tested form may be a part): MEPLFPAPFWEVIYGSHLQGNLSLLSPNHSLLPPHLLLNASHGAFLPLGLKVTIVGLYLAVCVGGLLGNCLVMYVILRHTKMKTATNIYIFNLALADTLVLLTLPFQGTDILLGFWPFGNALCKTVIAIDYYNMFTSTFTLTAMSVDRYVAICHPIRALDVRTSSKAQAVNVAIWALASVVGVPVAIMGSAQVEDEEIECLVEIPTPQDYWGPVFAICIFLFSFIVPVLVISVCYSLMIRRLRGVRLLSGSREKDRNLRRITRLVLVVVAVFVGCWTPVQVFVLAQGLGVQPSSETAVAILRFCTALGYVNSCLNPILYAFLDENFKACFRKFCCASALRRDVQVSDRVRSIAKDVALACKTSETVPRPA
Chain of Nociceptin receptor (Mus musculus) (P35377 whole entry, the tested form may be a part): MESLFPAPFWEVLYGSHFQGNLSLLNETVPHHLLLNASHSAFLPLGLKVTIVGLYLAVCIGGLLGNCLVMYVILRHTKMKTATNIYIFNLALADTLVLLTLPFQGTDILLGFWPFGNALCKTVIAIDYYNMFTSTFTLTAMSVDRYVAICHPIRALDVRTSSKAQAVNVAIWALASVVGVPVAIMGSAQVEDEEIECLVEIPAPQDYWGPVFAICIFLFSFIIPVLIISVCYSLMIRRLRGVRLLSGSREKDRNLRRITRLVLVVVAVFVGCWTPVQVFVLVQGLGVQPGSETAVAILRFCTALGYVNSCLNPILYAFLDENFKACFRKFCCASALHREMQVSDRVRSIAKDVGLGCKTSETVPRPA

Regarding `CC[C@H](C)[C@H](NC(=O)[C@H](CCCNC(=N)N)NC(=O)[C@H](Cc1ccc(O)cc1)NC(=O)[C@H](Cc1ccc(O)cc1)NC(=O)[C@H](CCCNC(=N)N)NC(=O)CC(C)C)C(=O)N[C@@H](CCCCN)C(N)=O`, the IC50 (commonly the concentration at which inhibition is half-maximal) at Nociceptin receptor [1] was 7.42 nM.

Take `CC[C@H](C)[C@H](NC(=O)[C@H](CCCNC(=N)N)NC(=O)[C@H](Cc1ccc(O)cc1)NC(=O)[C@H](Cc1ccccc1)NC(=O)[C@@H](N)CCCNC(=N)N)C(=O)N[C@@H](CCCCN)C(N)=O`: the result in experiment [2] was inactive.

Compound `CCCCC(=O)N[C@@H](CCCN=C(N)N)C(=O)N[C@@H](Cc1ccc(O)cc1)C(=O)N[C@@H](Cc1ccc(O)cc1)C(=O)N[C@@H](CCCN=C(N)N)C(=O)N[C@H](C(=O)N[C@@H](CCCCN)C(N)=O)[C@@H](C)CC` returned an IC50 at Nociceptin receptor [1] of 5.67 nM.

Consider `CCCC(=O)N[C@@H](CCCNC(=N)N)C(=O)N[C@@H](Cc1ccc(O)cc1)C(=O)N[C@@H](Cc1ccc(O)cc1)C(=O)N[C@@H](CCCNC(=N)N)C(=O)N[C@H](C(=O)N[C@@H](CCCCN)C(N)=O)[C@@H](C)CC`, for which the concentration for half-maximal inhibition (IC50) on Nociceptin receptor [1] was 1.86 nM. For the same compound, on Nociceptin receptor [3], the EC50 – broadly, the concentration at which the effect is half-maximal – is 32.4 nM.

On Nociceptin receptor [1], `CCCCCC(=O)N[C@@H](CCCNC(=N)N)C(=O)N[C@@H](Cc1ccc(O)cc1)C(=O)N[C@@H](Cc1ccc(O)cc1)C(=O)N[C@@H](CCCNC(=N)N)C(=O)N[C@H](C(=O)N[C@@H](CCCCN)C(N)=O)[C@@H](C)CC` gave an IC50 of 21.7 nM.

For the compound `CCC(=O)N[C@@H](CCCNC(=N)N)C(=O)N[C@@H](Cc1ccccc1)C(=O)N[C@@H](Cc1ccc(O)cc1)C(=O)N[C@@H](CCCNC(=N)N)C(=O)N[C@H](C(=O)N[C@@H](CCCCN)C(N)=O)[C@@H](C)CC` (Propionyl-RFYRIK-NH2), the Activity in experiment [4] was determined as 90%.

For the compound `CC(C)C[C@H](NC(=O)[C@H](CCCCN)NC(=O)[C@H](CCCNC(=N)N)NC(=O)[C@H](C)NC(=O)[C@H](CO)NC(=O)[C@H](CCCCN)NC(=O)[C@H](CCCNC(=N)N)NC(=O)[C@H](C)NC(=O)CNC(=O)[C@@H](NC(=O)[C@H](Cc1ccccc1)NC(=O)CNC(=O)CNC(=O)[C@@H](N)Cc1ccccc1)[C@@H](C)O)C(=O)N[C@@H](C)C(=O)N[C@@H](CC(N)=O)C(=O)N[C@@H](CCC(N)=O)C(=O)O`, the ED50 in experiment [2] came out at 19.3 nM.

In the case of `CC[C@H](C)[C@H](NC(=O)[C@H](CCCN=C(N)N)NC(=O)[C@H](Cc1ccc(O)cc1)NC(=O)[C@H](Cc1ccc(O)cc1)NC(=O)[C@H](CCCN=C(N)N)NC(C)=O)C(=O)N[C@@H](CCCCN)C(N)=O`, the Activity in experiment [5] is 40%.

For `CC[C@H](C)[C@H](NC(=O)[C@H](CCCN=C(N)N)NC(=O)[C@H](Cc1ccc(O)cc1)NC(=O)[C@H](Cc1ccc(O)cc1)NC(=O)[C@H](CCCN=C(N)N)NC=O)C(=O)N[C@@H](CCCCN)C(N)=O`, at Nociceptin receptor [1], the IC50 is 0.66 nM. Besides, the EC50 on Nociceptin receptor [3] came to 23.3 nM.

On to `CC[C@H](C)[C@H](NC(=O)[C@H](CCCNC(=N)N)NC(=O)[C@H](Cc1ccc(O)cc1)NC(=O)[C@H](Cc1ccc(O)cc1)NC(=O)[C@H](CCCNC(=N)N)NC(=O)C(C)C)C(=O)N[C@@H](CCCCN)C(N)=O`, for which the IC50 on Nociceptin receptor [1] is 2.81 nM. Besides, at Nociceptin receptor [3], the 50% effective concentration (EC50) turned out to be 44.5 nM.

As to `CC[C@H](C)[C@H](NC(=O)[C@H](CCCNC(=N)N)NC(=O)[C@H](Cc1ccc(O)cc1)NC(=O)[C@H](Cc1ccc(O)cc1)NC(=O)[C@H](CCCNC(=N)N)NC(=O)c1ccccc1)C(=O)N[C@@H](CCCCN)C(N)=O`, the IC50 on Nociceptin receptor [1] came to 14.7 nM. The EC50 at Nociceptin receptor [3] turned out to be 18.3 nM.

`CC[C@H](C)[C@H](NC(=O)[C@H](CCCN=C(N)N)NC(=O)[C@H](Cc1ccc(O)cc1)NC(=O)[C@H](Cc1ccc(O)cc1)NC(=O)[C@H](CCCN=C(N)N)NC(=O)C12CC3CC(CC(C3)C1)C2)C(=O)N[C@@H](CCCCN)C(N)=O` yielded an IC50 on Nociceptin receptor [1] of 3.42 nM. Also, on Nociceptin receptor [3], the EC50 came to 19.2 nM.

Turning to `CCC(C)C(=O)N[C@@H](CCCNC(=N)N)C(=O)N[C@@H](Cc1ccc(O)cc1)C(=O)N[C@@H](Cc1ccc(O)cc1)C(=O)N[C@@H](CCCNC(=N)N)C(=O)N[C@H](C(=O)N[C@@H](CCCCN)C(N)=O)[C@@H](C)CC` (stereo partly drawn), the IC50 on Nociceptin receptor [1] was determined as 21.3 nM. Besides, the EC50 at Nociceptin receptor [3] came to 52.7 nM.

Turning to `CC[C@H](C)[C@H](NC(=O)[C@H](CCCNC(=N)N)NC(=O)[C@H](Cc1ccc(O)cc1)NC(=O)[C@H](Cc1ccccc1)NC(=O)[C@H](CCCNC(=N)N)NC(=O)c1ccccc1)C(=O)N[C@@H](CCCCN)C(N)=O` (Bz-RFYRIK-NH2), the Activity in experiment [4] amounted to 90%.

On to `CC[C@H](C)[C@H](NC(=O)[C@H](CCCNC(=N)N)NC(=O)[C@H](Cc1ccc(O)cc1)NC(=O)[C@H](Cc1ccc(O)cc1)NC(=O)[C@H](CCCNC(=N)N)NC(=O)C(C)(C)C)C(=O)N[C@@H](CCCCN)C(N)=O`, for which the IC50 at Nociceptin receptor [1] worked out at 14.9 nM. In addition, the EC50 at Nociceptin receptor [3] came to 97.9 nM.

At Nociceptin receptor [1], `CCC(=O)N[C@@H](CCCNC(=N)N)C(=O)N[C@@H](Cc1ccc(O)cc1)C(=O)N[C@@H](Cc1ccc(O)cc1)C(=O)N[C@@H](CCCNC(=N)N)C(=O)N[C@H](C(=O)N[C@@H](CCCCN)C(N)=O)[C@@H](C)CC` yielded an IC50 of 1.7 nM. Moreover, the EC50 on Nociceptin receptor [3] was 27.6 nM.

Consider `CC[C@H](C)[C@H](NC(=O)[C@H](CCCNC(=N)N)NC(=O)[C@H](Cc1ccc(O)cc1)NC(=O)[C@H](Cc1ccccc1)NC(=O)[C@H](CCCNC(=N)N)NC(=O)CC(C)C)C(=O)N[C@@H](CCCCN)C(N)=O` (Isovaleryl-RFYRIK-NH2), for which, in experiment [2], the Activity entry is “Dose-dependent effect”.

Compound `CC[C@H](C)[C@H](NC(=O)[C@H](CCCN=C(N)N)NC(=O)[C@H](Cc1ccc(O)cc1)NC(=O)[C@H](Cc1ccc(O)cc1)NC(=O)[C@H](CCCN=C(N)N)NC(=O)C(C)(C)CC)C(=O)N[C@@H](CCCCN)C(N)=O` yielded an IC50 on Nociceptin receptor [1] of 45.5 nM. Moreover, the EC50 on Nociceptin receptor [3] worked out at 17.7 nM.

On to `CCCC(C)C(=O)N[C@@H](CCCNC(=N)N)C(=O)N[C@@H](Cc1ccc(O)cc1)C(=O)N[C@@H](Cc1ccc(O)cc1)C(=O)N[C@@H](CCCNC(=N)N)C(=O)N[C@H](C(=O)N[C@@H](CCCCN)C(N)=O)[C@@H](C)CC` (stereo partly drawn), for which the IC50 at Nociceptin receptor [1] came to 47.3 nM. In addition, the EC50 at Nociceptin receptor [3] came out at 23.8 nM.

The compound `CC[C@H](C)[C@H](NC(=O)[C@H](CCCN=C(N)N)NC(=O)[C@H](Cc1ccc(O)cc1)NC(=O)[C@H](Cc1ccc(O)cc1)NC(=O)[C@H](CCCN=C(N)N)NC(=O)CC(C)(C)C)C(=O)N[C@@H](CCCCN)C(N)=O` registered an IC50 at Nociceptin receptor [1] of 16.9 nM. On Nociceptin receptor [3], the EC50 turned out to be 46.5 nM.

Consider `CC[C@H](C)[C@H](NC(=O)[C@H](CCCNC(=N)N)NC(=O)[C@H](Cc1ccc(O)cc1)NC(=O)[C@H](Cc1ccc(O)cc1)NC(=O)[C@@H](N)CCCNC(=N)N)C(=O)N[C@@H](CCCCN)C(N)=O`, for which, on Nociceptin receptor [1], the IC50 stood at 218 nM.

In turn, `CCC(CC)C(=O)N[C@@H](CCCN=C(N)N)C(=O)N[C@@H](Cc1ccc(O)cc1)C(=O)N[C@@H](Cc1ccc(O)cc1)C(=O)N[C@@H](CCCN=C(N)N)C(=O)N[C@H](C(=O)N[C@@H](CCCCN)C(N)=O)[C@@H](C)CC` showed an IC50 at Nociceptin receptor [1] of 92.6 nM.
